Test results from patent publication US20120244122A1, “Peptides for the Treatment of HCV Infections” (priority 2009, published 2012).
Where two headings read alike, the source gives them in different places.

How the values were obtained:
[1] = Metabolic stability in human liver microsomes; assay type: in vitro ADME; conditions: for % Difference: [(deuterated species) − (nondeuterated species)](100)/(nondeuterated species), t1/2 in HLM vs boceprevir; for half-life at 0.25 μM: human, in vitro half-life, 0.5 mg/mL HLM, 0.25 μM test compound, 2 mM NADPH, pH 7.4, 37° C., 0-30 minutes
Experimental: Human liver microsomes (20 mg/mL) were obtained from Xenotech, LLC (Lenexa, Kans.). β-Nicotinamide adenine dinucleotide phosphate, reduced form (NADPH), magnesium chloride (MgCl2), and dimethyl sulfoxide (DMSO) were purchased from Sigma-Aldrich.
7.5 mM stock solutions of Compounds 103, 109, 130, 134, 154, 157 and 158, as well as boceprevir, were prepared in DMSO. The 7.5 mM stock solutions were diluted to 12.5 μM in acetonitrile (ACN). The 20 mg/mL human liver microsomes were diluted to 0.625 mg/mL in 0.1 M potassium phosphate buffer, pH 7.4, containing 3 mM MgCl2. The diluted microsomes (375 μL) were added to wells of a 96-well deep-well polypropylene plate in triplicate. 10 μL of the 12.5 μM test compound was added to the microsomes and the mixture was pre-warmed for 10 minutes. Reactions were initiated by addition of 125 μL of pre-warmed NADPH solution. The final reaction volume was 0.5 mL and contained 0.5 mg/mL human liver microsomes, 0.25 μM test compound, and 2 mM NADPH in 0.1 M potassium phosphate buffer, pH 7.4, and 3 mM MgCl2. The reaction mixtures were incubated at 37° C., and 50 μL aliquots were removed at 0, 5, 10, 20, and 30 minutes and added to shallow-well 96-well plates which contained 50 μL of ice-cold ACN with internal standard to stop the reactions. The plates were stored at 4° C. for 20 minutes after which 100 μl of water was added to the wells of the plate before centrifugation to pellet precipitated proteins. Supernatants were transferred to another 96-well plate and analyzed for amounts of parent remaining by LC-MS/MS using an Applied Bio-systems API 4000 mass spectrometer. 7-ethoxycoumarin (1 μM) was used as the positive control substrate.
The in vitro half-lives (t1/2s) for test compounds are calculated from the slopes of the linear regression of % parent remaining (ln) vs incubation time relationship using the following formula:
in vitro t1/2=0.693/k, where k=−[slope of linear regression of % parent remaining(ln) vs incubation time]
Data analysis is performed using Microsoft Excel Software.
The experiment was repeated four separate times.

[2] = system: hepatitis C virus (HCV); conditions: treatment-naïve patients, boceprevir combined with peginterferon alpha-2b and ribavirin, cited from earlier work
[3] = patients with hepatitis C; adverse events infrequent (headache, fever, myalgia); cited from earlier work

% Difference [1] | half-life at 0.25 μM ([1]; human liver microsomes) | Compound | sustained viral response (SVR) rates ([2]; after 12 weeks) | sustained viral response (SVR) rates ([2]; after 24 weeks) | tolerability [3] | half-life at 0.25 μM ([1]; microsomes)
 | 19 min | CC(C)(C)NC(=O)NC(C(=O)N1CC2C(C1C(=O)NC(CC1CCC1)C(=O)C(N)=O)C2(C)C)C(C)(C)C (stereo not drawn) [Boceprevir, N-(4-amino-1-cyclobutyl-3,4-dioxobutan-2-yl)-3-(2-(3-tert-butylureido)-3,3-dimethylbutanoyl)-6,6-dimethyl-3-azabicyclo[3.1.0]hexane-2-carboxamide] | 66-74% | 55-56% | well-tolerated | 
65.3% | 31.4 min | [2H]C([2H])([2H])C1(C([2H])([2H])[2H])[C@@H]2[C@@H](C(=O)NC(C(=O)C(N)=O)C([2H])([2H])C3([2H])C([2H])([2H])C([2H])([2H])C3([2H])[2H])N(C(=O)[C@@H](NC(=O)NC(C)(C)C)C(C)(C)C)C[C@@H]21 (stereo partly drawn) [Compound 130, (1R,2S,5S)—N-(4-Amino-1-(cyclobutyl-d7)-1,1-d2-3,4-dioxobutan-2-yl)-3-((S)-2-(3-tert-butylureido)-3,3-dimethylbutanoyl)-6,6-di(methyl-d3)-3-azabicyclo[3.1.0]hexane-2-carboxamide] |  |  |  | 
39.9% | 26.6 min | [2H]C1([2H])C([2H])([2H])C([2H])(CC(NC(=O)[C@@H]2[C@@H]3[C@H](CN2C(=O)[C@@H](NC(=O)NC(C)(C)C)C(C)(C)C)C3(C)C)C(=O)C(N)=O)C1([2H])[2H] (stereo partly drawn) [Compound 157, (1R,2S,5S)—N-(4-Amino-1-(cyclobutyl-d7)-3,4-dioxobutan-2-yl)-3-((S)-2-(3-tert-butylureido)-3,3-dimethylbutanoyl)-6,6-dimethyl-3-azabicyclo[3.1.0]hexane-2-carboxamide] |  |  |  | 

The remaining lines, values behind:

Compound | % Difference [1] | half-life at 0.25 μM ([1]; human liver microsomes) | sustained viral response (SVR) rates ([2]; after 12 weeks) | sustained viral response (SVR) rates ([2]; after 24 weeks) | tolerability [3] | half-life at 0.25 μM ([1]; microsomes)
[2H]C([2H])([2H])C(NC(=O)N[C@H](C(=O)N1C[C@H]2[C@@H]([C@H]1C(=O)NC(CC1CCC1)C(=O)C(N)=O)C2(C)C)C(C([2H])([2H])[2H])(C([2H])([2H])[2H])C([2H])([2H])[2H])(C([2H])([2H])[2H])C([2H])([2H])[2H] (stereo partly drawn) [Compound 109, (1R,2S,5S)—N-(4-Amino-1-cyclobutyl-3,4-dioxobutan-2-yl)-6,6-dimethyl-3-((S)-4,4,4-(methyl-d3)-2-(3-(1,1,1,3,3,3-di(methyl-d3)-2-(methyl-d3)propan-2-yl)ureido)-3,3-di(methyl-d3)butanoyl)-3-azabicyclo[3.1.0]hexane-2-carboxamide] | 21.8% | 23.2 min |  |  |  | 
[2H]C([2H])([2H])C1(C([2H])([2H])[2H])[C@@H]2[C@@H](C(=O)NC(C(=O)C(N)=O)C([2H])([2H])C3([2H])C([2H])([2H])C([2H])([2H])C3([2H])[2H])N(C(=O)[C@@H](NC(=O)NC(C([2H])([2H])[2H])(C([2H])([2H])[2H])C([2H])([2H])[2H])C(C([2H])([2H])[2H])(C([2H])([2H])[2H])C([2H])([2H])[2H])C[C@@H]21 (stereo partly drawn) [Compound 158, (1R,2S,5S)—N-(4-Amino-1-(cyclobutyl-d7)-1,1-d2-3,4-dioxobutan-2-yl)-3-((S)-2-(3-(tert-butyl-d9)ureido)-3,3-di(methyl-d3)-4,4,4-d3-butanoyl)-6,6-di(methyl-d3)-3-azabicyclo[3.1.0]hexane-2-carboxamide] | 96.3% | 37.2 min |  |  |  | 
[2H]C([2H])([2H])C1(C([2H])([2H])[2H])[C@@H]2[C@@H](C(=O)NC(CC3CCC3)C(=O)C(N)=O)N(C(=O)[C@@H](NC(=O)NC(C([2H])([2H])[2H])(C([2H])([2H])[2H])C([2H])([2H])[2H])C(C([2H])([2H])[2H])(C([2H])([2H])[2H])C([2H])([2H])[2H])C[C@@H]21 (stereo partly drawn) [Compound 103, (1R,2S,5S)—N-(4-Amino-1-(cyclobutyl)-3,4-dioxobutan-2-yl)-3-((S)-2-(3-tert-butyl-d9-ureido)-3,3-di(methyl-d3)-4,4,4-d3-butanoyl)-6,6-di(methyl-d3)-3-azabicyclo[3.1.0]hexane-2-carboxamide] | 32.0% | 25 min |  |  |  | 
[2H]C([2H])(C(NC(=O)[C@@H]1[C@@H]2[C@H](CN1C(=O)[C@@H](NC(=O)NC(C)(C)C)C(C)(C)C)C2(C)C)C(=O)C(N)=O)C1([2H])C([2H])([2H])C([2H])([2H])C1([2H])[2H] (stereo partly drawn) [Compound 154, (1R,2S,5S)—N-(4-Amino-1-(cyclobutyl-d7)-1,1-d2-3,4-dioxobutan-2-yl)-3-((S)-2-(3-tert-butylureido)-3,3-dimethylbutanoyl)-6,6-dimethyl-3-azabicyclo[3.1.0]hexane-2-carboxamide] | 51.4% | 28.7 min |  |  |  | 
[2H]C([2H])([2H])C1(C([2H])([2H])[2H])[C@@H]2[C@@H](C(=O)NC(CC3CCC3)C(=O)C(N)=O)N(C(=O)[C@@H](NC(=O)NC(C)(C)C)C(C)(C)C)C[C@@H]21 (stereo partly drawn) [Compound 134, (1R,2S,5S)—N-(4-Amino-1-cyclobutyl-3,4-dioxobutan-2-yl)-3-((S)-2-(3-tert-butylureido)-3,3-dimethylbutanoyl)-6,6-di(methyl-d3)-3-azabicyclo[3.1.0]hexane-2-carboxamide] | 7.9% |  |  |  |  | 19.1 min
